Key:
LDL = LDL oxidation by copper, conjugated diene formation (OD 234 nm); assay type: biochemical; conditions: for decrease in the maximum amount of conjugated dienes formed: copper alone 496 nmol per mg of LDL, FIG. 2c; for rate of conjugated diene formation (LDL oxidation rate): copper alone 3, FIG. 2b; for lag phase for conjugated diene formation: copper alone 104 minutes; for lag phase for conjugated diene formation / increase in the lag phase: FIG. 2a; for increase in the lag phase: relative to copper alone
Method: LDL were prepared as described in Lebeau et al. (Lebeau, Furman et al. 2000). The solutions of the test compounds were prepared at 10^−2 M in ethanol and diluted in PBS so that the final concentration ranged from 0.1 to 100 μM with a total ethanol concentration of 1% (V/V).
Before oxidation, EDTA was removed from the LDL preparation by dialysis. The oxidation reaction was then carried out at 30° C. by adding 100 μl of 16.6 μM CuSO4 or 2 mM MPH to 800 μl of LDL (125 μg protein/ml) and 100 μl of a test compound solution. The formation of dienes, the species to be followed, was measured by the optical density at 234 nm in the samples treated with the compounds in the presence or absence of copper (or MPH). Optical density at 234 nm was measured every 10 minutes for 8 hours on a thermostated spectrophotometer (Kontron Uvikon 930). The analyses were carried out in triplicate. A compound was considered to have antioxidant activity when it shifted the lag phase latency relative to the control sample. […] FIG. 2 presents an example of the results obtained with the inventive compounds.

[1] = tested on: ischemia induced by occlusion of the middle cerebral artery; test: Cerebral ischemia-reperfusion model, curative or acute phase treatment, brain infarct volume; assay type: in vivo, Wistar rats
Method: (§1) Animals such as those described previously were used for this experiment. Animals were anesthetized by intraperitoneal injection of 300 mg/kg chloral hydrate. A rectal probe was inserted and body temperature was maintained at 37° C.±0.5° C. Blood pressure was monitored throughout the experiment. Under a surgical microscope, the right carotid artery was exposed by a median incision in the neck. The pterygopalatine artery was ligated at its origin and an arteriotomy was fashioned in the external carotid artery so as to insert a nylon monofilament, which was gently advanced to the common carotid artery and then into the internal carotid artery so as to occlude the origin of the middle cerebral artery. The filament was withdrawn one hour later to allow reperfusion. Animals first subjected to ischemia-reperfusion were treated with the inventive compounds by the oral route (such as previously described in CMC+Tween vehicle) one or more times after reperfusion (600 mg/kg/day or 300 mg/kg/day bid). 24, 48 or 72 hours after reperfusion, animals previously treated or not with the compounds were euthanized by pentobarbital overdose. Brains were rapidly frozen and sliced. Sections were stained with cresyl violet. Unstained zones of the brain sections were considered to be damaged by the infarct. Areas (of the infarct and the two hemispheres) were measured, the volume of the infarct and the two hemispheres was calculated and the corrected infarct volume was determined by the following formula: (corrected infarct volume=infarct volume−(volume of right hemisphere−volume of left hemisphere)) to compensate for cerebral oedema.

[2] = tested on: ischemia induced by occlusion of the middle cerebral artery; test: Cerebral ischemia-reperfusion model, prophylactic treatment, brain infarct volume; assay type: in vivo, Wistar rats
Method: as §1, with “Wistar rats weighing 200 to 350 g were used” for “Animals such as those described previously were used”, “this experiment. Animals were treated by gavage with the inventive compounds (600 mg/kg/day) in suspension in the vehicle (0.5% carboxycellulose (CMC) and 0.1% Tween) or with the vehicle alone, for 14 days before ischemia induction by occlusion of the middle cerebral artery. Animals were” for “this experiment. Animals were”, “allow reperfusion. Twenty-four hours after” for “allow reperfusion. Animals first subjected to ischemia-reperfusion were treated with the inventive compounds by the oral route (such as previously described in CMC+Tween vehicle) one or more times after reperfusion (600 mg/kg/day or 300 mg/kg/day bid). 24, 48 or 72 hours after”, “with the inventive compounds were” for “with the compounds were”, “hemispheres) were measured and the volume” for “hemispheres) were measured, the volume”

[3] = biological target: T1, hPPARα (Gal4/PPARα chimera) (Homo sapiens, UniProt Q07869); test: Gal4/PPARα transactivation system in HepG2 cells (luciferase); assay type: cell-based; conditions: HepG2, 24 h, PC liposomes, FIG. 3
T1 construct: expressed in transfected cells; host or cells: HepG2
T1 sequence (Q07869 239-466 limits assumed): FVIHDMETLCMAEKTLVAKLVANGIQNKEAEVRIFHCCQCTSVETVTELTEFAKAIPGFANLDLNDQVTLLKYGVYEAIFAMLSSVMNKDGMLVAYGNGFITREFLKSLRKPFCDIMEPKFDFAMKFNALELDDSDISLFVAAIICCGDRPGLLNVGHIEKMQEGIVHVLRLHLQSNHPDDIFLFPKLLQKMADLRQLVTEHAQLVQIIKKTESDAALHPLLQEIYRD
Method: PPAR activation was tested in vitro in RK13 fibroblast cell lines or in a […] line HepG2 by measuring the transcriptional activity of chimeras composed of the DNA binding domain of the yeast gal4 transcription factor and the ligand binding domain of the different PPARs. The example below is given for HepG2 cells.
HepG2 cells were from ECACC (Porton Down, UK) and were grown in DMEM medium supplemented with 10% (V/V) fetal calf serum, 100 U/ml penicillin (Gibco, Paisley, UK) and 2 mM L-glutamine (Gibco, Paisley, UK). The culture medium was changed every two days. Cells were kept at 37° C. in a humidified 95% air/5% CO2 atmosphere.
The plasmids pG5TkpGL3, pRL-CMV, pGal4-hPPARα, pGal4-hPPARγ and pGal4-f have been described by Raspe et al. (Raspe, Madsen et al. 1999). The pGal4-mPPARα and pGal4-hPPARβ constructs were obtained by cloning PCR-amplified DNA fragments corresponding to the DEF domains of the mouse PPARα and human PPARβ nuclear receptors, respectively, into the pGal4-f vector.
HepG2 cells were seeded in 24-well culture dishes at 5×10^4 cells/well and transfected for 2 hours with the reporter plasmid pG5TkpGL3 (50 ng/well), the expression vectors pGal4-f, pGal4-mPPARα, pGal4-hPPARα, pGal4-hPPARγ, pGal4-hPPAβ (100 ng/well) and the transfection efficiency control vector pRL-CMV (1 ng/well) according to the previously described protocol (Raspe, Madsen et al. 1999), then incubated for 36 hours with the test compounds. At the end of the experiment, the cells were lysed (Gibco, Paisley, UK) and luciferase activity was determined with a Dual-Luciferase™ Reporter Assay System kit (Promega, Madison, Wis., USA) according to the supplier's instructions. The protein content of the cell extracts was then measured with the Bio-Rad Protein Assay (Bio-Rad, Munich, Germany) as directed by the supplier.
FIG. 3: HepG2 cells transfected with Gal4/PPARα plasmids were incubated with different concentrations of inventive compounds (5, 15, 50 and 100 μM) for 24 h and with different concentrations of the vehicle (PC). The results are expressed as the induction factor (luminescent signal relative to untreated cells) after the different treatments. […] The induction factors for compound Ex 4p were 35 at 100 μM, 44 at 50 μM, 36 at 15 μM and 24 at 5 μM. In contrast, when the cells were incubated with the vehicle (PC liposome), no significant induction was observed.

[4] = prophylactic treatment, FIG. 4b

## CCCCCCCCCCCCCCCC(=O)OCC(COC(=O)CCCCCCCCCCCCCCC)OC(=O)CSCCCCCCCCCCCCCC [Ex 4g, 1,3-dipalmitoyl-2-tetradecylthioacetylglycerol]
LDL; compound at 10^-4 M
  decrease in the maximum amount of conjugated dienes formed: 31%
  rate of conjugated diene formation (LDL oxidation rate): 1.8 nmol/min/mg of LDL
  lag phase for conjugated diene formation: 282 min
LDL
  increase in the lag phase: 170%

## CCCCCCCCCCCCCCCC(=O)OC(COC(=O)CSCCCCCCCCCCCCCC)COC(=O)CSCCCCCCCCCCCCCC [Ex 4o, 1,3-ditetradecylthioacetyl-2-palmitoylglycerol]
LDL; FIG. 2b
  effect on the LDL oxidation rate (in words): did not significantly alter
LDL
  increase in the lag phase: 37%

## 1,3-dilinoleyl-2-tetradecylthioacetylglycerol [Ex 4h]
LDL; compound at 10^-4 M
  decrease in the maximum amount of conjugated dienes formed: 24%
  rate of conjugated diene formation (LDL oxidation rate): 2.5 nmol/min/mg of LDL
LDL
  increase in the lag phase: 43%

## CCCCCCCCCCCCCCSCC(=O)OC(COC(=O)CCCCCCC)COC(=O)CCCCCCC [Ex 4q, 1,3-dioctanoyl-2-tetradecylthioacetylglycerol]
LDL; FIG. 2b
  effect on the LDL oxidation rate (in words): did not significantly alter
LDL
  increase in the lag phase: 54%

## CCCCCCCCCCCCCCSCC(=O)OCC(COC(=O)CSCCCCCCCCCCCCCC)OC(=O)CSCCCCCCCCCCCCCC [Ex 4a, 1,2,3-tritetradecylthioacetylglycerol]
[1]; 600 mg/kg/day for 24 hours after ischemia, FIG. 4c
  lesions smaller than control animals: 27%
[1]; 600 mg/kg/day for 24 hours after ischemia, controls 180 mm^3, FIG. 4c
  infarct volume: 132 mm^3
[1]; 600 mg/kg/day for 72 hours after ischemia, FIG. 4e
  lesions smaller than control animals: 40%
[1]; 600 mg/kg/day for 72 hours after ischemia, controls 180 mm^3, FIG. 4e
  corrected infarct volume: 110 mm^3
[1]; acute phase 24 h, FIG. 4d
  decrease in lesions, cortical infarct (uncorrected infarct volume): 25%
  effect on striatal infarct (uncorrected infarct volume), in words: no significant decrease in lesions
[1]; acute phase 72 h, FIG. 4f
  decrease in lesions, cortical infarct (uncorrected infarct volume): 32%
  decrease in lesions, striatal infarct (uncorrected infarct volume): 23%
[2]; oral, 300 mg/kg/day bid, 14 days before ischemia, FIG. 4a
  decrease in lesion size relative to control animals: 22%
[2]; oral, 300 mg/kg/day bid, 14 days before ischemia, controls 186 mm^3, FIG. 4a
  corrected total infarct volume (lesion size): 145 mm^3
[2]; [4]
  decrease in lesions, cortical infarct (uncorrected infarct volume): 22%
  effect on striatal infarct (uncorrected infarct volume), in words: no significant decrease in lesions
LDL; compound at 10^-4 M, FIG. 2b
  decrease in the oxidation rate: 66%
LDL; compound at 10^-4 M
  decrease in the maximum amount of conjugated dienes formed: 60%
  rate of conjugated diene formation (LDL oxidation rate): 1 nmol/min/mg of LDL
  lag phase for conjugated diene formation: 270 min
LDL
  increase in the lag phase: 160%
[3]; 5 μM
  induction factor (luminescent signal relative to untreated cells): 9 fold
[3]; 15 μM
  induction factor (luminescent signal relative to untreated cells): 18 fold
[3]; 50 μM
  induction factor (luminescent signal relative to untreated cells): 30 fold
[3]; 100 μM
  induction factor (luminescent signal relative to untreated cells): 41 fold

## CCCCCCCCCCCCCCSCC(=O)OC(COC(C)=O)COC(C)=O [Ex 4p, 1,3-diacetyl-2-tetradecylthioacetylglycerol]
[3]; 5 μM
  induction factor (luminescent signal relative to untreated cells): 24 fold
[3]; 15 μM
  induction factor (luminescent signal relative to untreated cells): 36 fold
[3]; 50 μM
  induction factor (luminescent signal relative to untreated cells): 44 fold
[3]; 100 μM
  induction factor (luminescent signal relative to untreated cells): 35 fold

## CCCCCCCCCCCCCCSCC(=O)OCC(O)CO (stereo not drawn) [Ex 2a, 1-tetradecylthioacetylglycerol]
LDL; FIG. 2b
  effect on the LDL oxidation rate (in words): did not significantly alter
LDL
  increase in the lag phase: 67%
[3]; 5 μM
  induction factor (luminescent signal relative to untreated cells): 17 fold
[3]; 15 μM
  induction factor (luminescent signal relative to untreated cells): 31 fold
[3]; 50 μM
  induction factor (luminescent signal relative to untreated cells): 41 fold
[3]; 100 μM
  induction factor (luminescent signal relative to untreated cells): 62 fold

— patent US20060252827A1, “Therapeutic use of acyglycerols and the nitrogen-and sulphur-containing analogues thereof” (priority 2003, published 2006)
